The results in this text go back to ChEMBL document CHEMBL2074377, “Transport of glutathione prostaglandin A conjugates by the multidrug resistance protein 1” (FEBS Lett, 1997).

Common to all, as to assay type: functional, cell membranes, Membrane vesicle
The target of series [1] is MRP1 (Multidrug resistance-associated protein 1) (Homo sapiens, UniProt P33527). The experiment in a line: TP_TRANSPORTER: inhibition of EA-GS uptake (EA-GS: 0.2 uM, GA1: 10 uM, in the presence of GSH) in membrane vesicles from MRP1-expressing DTY 168 yeast cells. Further details: scale not given: the % may be the effect or the level left. Conditions: probe EA-GS (0.2 uM), read-out: Activity.
Chain of MRP1 (Multidrug resistance-associated protein 1) (P33527 whole entry): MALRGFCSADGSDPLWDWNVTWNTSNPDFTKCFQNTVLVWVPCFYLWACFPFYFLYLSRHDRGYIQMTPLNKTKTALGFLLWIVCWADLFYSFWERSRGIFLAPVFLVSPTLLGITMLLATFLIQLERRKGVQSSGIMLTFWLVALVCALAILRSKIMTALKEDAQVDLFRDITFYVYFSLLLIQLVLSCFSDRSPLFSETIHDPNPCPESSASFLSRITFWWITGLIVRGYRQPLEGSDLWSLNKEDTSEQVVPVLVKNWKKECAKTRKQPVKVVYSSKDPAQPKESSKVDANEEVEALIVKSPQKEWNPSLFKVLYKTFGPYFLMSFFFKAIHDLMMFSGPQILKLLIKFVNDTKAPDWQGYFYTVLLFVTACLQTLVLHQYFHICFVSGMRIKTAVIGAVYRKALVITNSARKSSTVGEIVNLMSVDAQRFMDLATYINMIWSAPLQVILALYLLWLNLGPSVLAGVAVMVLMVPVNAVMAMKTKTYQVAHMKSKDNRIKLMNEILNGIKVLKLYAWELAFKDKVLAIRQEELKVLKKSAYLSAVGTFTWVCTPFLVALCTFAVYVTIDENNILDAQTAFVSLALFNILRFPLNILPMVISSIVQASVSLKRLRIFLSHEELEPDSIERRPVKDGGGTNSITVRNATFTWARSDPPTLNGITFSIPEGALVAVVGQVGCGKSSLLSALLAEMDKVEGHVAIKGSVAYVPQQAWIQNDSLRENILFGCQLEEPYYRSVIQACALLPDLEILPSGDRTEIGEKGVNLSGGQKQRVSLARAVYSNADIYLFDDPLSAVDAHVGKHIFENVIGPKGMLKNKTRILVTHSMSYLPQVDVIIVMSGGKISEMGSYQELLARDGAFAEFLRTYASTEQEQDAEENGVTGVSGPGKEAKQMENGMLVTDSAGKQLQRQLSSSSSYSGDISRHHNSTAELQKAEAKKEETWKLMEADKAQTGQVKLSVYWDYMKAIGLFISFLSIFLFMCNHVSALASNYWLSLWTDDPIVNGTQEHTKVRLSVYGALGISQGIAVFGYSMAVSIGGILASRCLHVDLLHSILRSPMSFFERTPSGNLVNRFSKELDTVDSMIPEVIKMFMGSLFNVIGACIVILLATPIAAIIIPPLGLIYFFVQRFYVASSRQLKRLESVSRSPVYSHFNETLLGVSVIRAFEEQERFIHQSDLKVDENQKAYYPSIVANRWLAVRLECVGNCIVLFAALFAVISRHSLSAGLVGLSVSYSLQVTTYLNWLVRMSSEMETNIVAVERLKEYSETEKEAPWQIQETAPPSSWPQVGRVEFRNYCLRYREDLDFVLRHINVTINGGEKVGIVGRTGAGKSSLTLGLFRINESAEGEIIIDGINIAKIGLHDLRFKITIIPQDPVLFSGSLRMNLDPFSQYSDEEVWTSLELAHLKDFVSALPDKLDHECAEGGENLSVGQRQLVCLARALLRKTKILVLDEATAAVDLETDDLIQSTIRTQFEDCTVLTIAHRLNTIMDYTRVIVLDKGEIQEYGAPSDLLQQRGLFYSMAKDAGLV

Series [2] concerns the target T1, Multidrug resistance-associated protein 1 (Homo sapiens, UniProt P33527). The experiment in a line: TP_TRANSPORTER: inhibition of EA-GS uptake (EA-GS: 0.2 uM,PGA2: 10 uM, in the presence of GSH) in membrane vesicles from MRP1-expressing DTY 168 yeast cells. Further details: scale not given: the % may be the effect or the level left. The following applies: dty 168, 10 µM.

Series [3] deals with T1, Multidrug resistance-associated protein 1. The experiment in a line: TP_TRANSPORTER: uptake in membrane vesicles from MRP1-expressing DTY 168 yeast cells.

T1 sequence (P33527 whole entry): as above

With `CCCCC[C@H](O)/C=C/[C@H]1C=CC(=O)[C@@H]1CCCCCCC(=O)O` [PROSTAGLANDIN A1], the activity at 10 µM in series [1] came to 15%.

Regarding `CCCCC[C@H](O)/C=C/[C@H]1C=CC(=O)[C@@H]1C/C=C\CCCC(=O)O` [PROSTAGLANDIN A2], the Activity in series [2] was found to be 9%.

Take `CCCCC[C@H](O)/C=C/[C@H]1C(SC[C@@H](NC(=O)CC[C@@H](N)C(=O)O)C(=O)NCC(=O)O)CC(=O)[C@H]1C/C=C\CCCC(=O)O` (stereo partly drawn): the Km result in series [3] is “substrate [Km=0.8-1uM]”.
